The values that follow come from US20100204119A1, “4-AMINO-5-OXO-7,8-DIHYDROPYRIMIDO[5,4-F][1,4]OXAZEPIN-6(5H)-YL PHENYL DERIVATIVES” (Pfizer Inc, priority 2009, published 2010).

This test deals with T1, Human full-length diacylglycerol:acylCoA acyltransferase 1 (DGAT-1) (Homo sapiens, UniProt O75907).
T1 sequence (O75907 1-488): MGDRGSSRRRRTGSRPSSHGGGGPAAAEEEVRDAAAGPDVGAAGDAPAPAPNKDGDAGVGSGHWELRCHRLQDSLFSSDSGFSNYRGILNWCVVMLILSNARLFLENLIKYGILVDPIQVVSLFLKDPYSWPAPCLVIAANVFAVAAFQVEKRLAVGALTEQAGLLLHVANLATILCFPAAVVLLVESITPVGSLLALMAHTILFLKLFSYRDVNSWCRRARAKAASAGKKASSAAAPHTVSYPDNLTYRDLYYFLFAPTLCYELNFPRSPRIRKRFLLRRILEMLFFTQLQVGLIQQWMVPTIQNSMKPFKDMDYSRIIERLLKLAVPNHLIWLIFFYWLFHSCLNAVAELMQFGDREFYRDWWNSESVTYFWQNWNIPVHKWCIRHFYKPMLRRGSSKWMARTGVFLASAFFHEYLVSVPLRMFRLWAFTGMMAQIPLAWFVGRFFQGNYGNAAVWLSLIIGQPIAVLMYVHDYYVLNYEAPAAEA
As to the kind of experiment: In vitro assay for inhibition of DGAT-1 activity (DGAT 1 Reduced Microsome Multidose Assay). Particulars: average where n > 1.

Setting [1] is: Trial 2 Human IC50, Trial 2: as Trial 4 except eleven concentrations of inhibitor instead of eight.
[2] abbreviates: Trial 3 Human IC50, Trial 3: as Trial 2 except compounds serially diluted in a different laboratory.
Where [3] appears, read: Trial 4 Human IC50, Trial 4: eight concentrations of inhibitor, microsomes 5 μg/mL.
The mark [4] stands for this setting: Trial 1 Human IC50, Trial 1: as Trial 4 except microsomes at 25 μg/mL instead of 5 μg/mL.

Protocol: Human full-length diacylglycerol:acylCoA acyltransferase 1 (DGAT-1) was expressed in Sf9 insect cells which are then lysed and a crude membrane fraction (105,000×g pellet) was prepared.
Inhibitors in DMSO were pre-incubated with membranes before initiating the DGAT-1 reaction by the addition of decanoylCoA. […] The inhibitors were present at a range of eight concentrations to generate an apparent IC50 for each compound. […] Specifically, the eight concentrations used were 3 μM, 1 μM, 300 nM, 100 nM, 30 nM, 10 nM, 3 nM and 1 nM.
The reactions were allowed to proceed for 1.5 hours at room temperature and then terminated by the addition of 20 μl of EDTA (40 mM). Reaction mixture is then mixed by trituration with 30 μl of Microscint™-E (Perkin Elmer). […] Four separate trials were conducted. The method of analysis of Trial 1 was the same as Trial 4 (described above) except microsomes were utilized at 25 μg/mL instead of 5 μg/mL. The method of analysis of Trial 2 was the same as Trial 4 (described above) except eleven (11) concentrations of inhibitor were employed instead of eight (8). The method of analysis of Trial 3 was the same as Trial 2 except the compounds were serially diluted in a different laboratory.
Where this DGAT-1 inhibition assay was performed on a compound more than once, an average is provided for that compound.

As for `Nc1ncnc2c1C(=O)N(c1ccc(C3CCN(C(=O)CC4CCOCC4)CC3)cc1)CCO2` [Example 7O], the half-inhibitory concentration (IC50) reads like this: under setting [1], 138 nM; under setting [2], 374 nM.
`CC(C)Cc1ccc(N2C[C@@H](C)Oc3ncnc(N)c3C2=O)cc1` [Example 1Y, (8R)-4-amino-6-(4-isobutylphenyl)-8-methyl-7,8-dihydropyrimido[5,4-f]-[1,4]oxazepin-5(6H)-one] had an IC50 under setting [3] of 6.78 nM.
Molecule `C[C@@H]1CN(c2ccc(C(C)(C)C(N)=O)cc2)C(=O)c2c(N)ncnc2O1` [Example 1AR] yielded an IC50 under setting [3] of 24 nM.
Consider `CN(CC1COCCO1)C(=O)C[C@H]1CC[C@H](c2ccc(N3CCOc4ncnc(N)c4C3=O)cc2)CC1` (some centres unmarked) [Example 6AF], for which the IC50 under setting [4] was 82.8 nM.
Still for that read-out and setting: the same measure for `N#CC1CCN(C(=O)C[C@H]2CC[C@H](c3ccc(N4CCOc5ncnc(N)c5C4=O)cc3)CC2)CC1` [Example 6G]: 50.1 nM.
Still for that read-out and setting: the same measure for `COC[C@H]1CCN(C(=O)C[C@H]2CC[C@H](c3ccc(N4CCOc5ncnc(N)c5C4=O)cc3)CC2)C1` [Example 6F]: 84.9 nM; for `C[C@@H]1COCCN1C(=O)C[C@H]1CC[C@H](c2ccc(N3CCOc4ncnc(N)c4C3=O)cc2)CC1` [Example 6BD]: 47.2 nM.
In the case of `Cc1ocnc1C(=O)N1CCC(c2ccc(N3CCOc4ncnc(N)c4C3=O)cc2)CC1` [Example 7G], the IC50 was 88.2 nM under setting [1] and 290 nM under setting [2].
The molecule `Cc1ccc(N2C[C@@H](C)Oc3ncnc(N)c3C2=O)cc1` [Example 1P, (8R)-4-amino-8-methyl-6-(4-methylphenyl)-7,8-dihydropyrimido[5,4-f]-[1,4]oxazepin-5(6H)-one] had a half-inhibitory concentration (IC50) under setting [3] of 52.8 nM.
For the molecule `CO[C@H]1CCN(C(=O)C[C@H]2CC[C@H](c3ccc(N4CCOc5ncnc(N)c5C4=O)cc3)CC2)C1` [Example 6E], the half-maximal inhibitory concentration (IC50) under setting [4] amounted to 72.1 nM.
Turning to `COCCN(C)C(=O)C[C@H]1CC[C@H](c2ccc(N3CCOc4ncnc(N)c4C3=O)cc2)CC1` [Example 6J], under setting [4], half-maximal inhibition (IC50) was put at 51 nM.
Take `COCC(C)(C)c1ccc(N2C[C@@H](C)Oc3ncnc(N)c3C2=O)cc1` [Example 1AA]: the half-inhibitory concentration (IC50) under setting [3] is 42.7 nM.
With `Nc1ncnc2c1C(=O)N(c1ccc([C@H]3CC[C@H](CC(=O)N4CCNC(=O)C4)CC3)cc1)CCO2` [Example 6AX], half-maximal inhibition under setting [4] (IC50) required 123 nM.
Still for that read-out and setting: the same measure for `COCC1CCN(C(=O)C[C@H]2CC[C@H](c3ccc(N4CCOc5ncnc(N)c5C4=O)cc3)CC2)CC1` [Example 6I]: 57.8 nM.
Take `C[C@@H]1CN(c2ccc3c(c2)CCC3)C(=O)c2c(N)ncnc2O1` [Example 1S]: the IC50 under setting [3] was less than 10.7 nM.
In the case of `C[C@@H]1CN(c2ccc(C(C)(C)C)cc2)C(=O)c2c(N)ncnc2O1` [Example 1I, (8R)-4-amino-6-(4-tert-butylphenyl)-8-methyl-7,8-dihydropyrimido[5,4-f]-[1,4]oxazepin-5(6H)-one], the IC50 by setting is: under setting [1], 18.4 nM; under setting [2], 33.7 nM; under setting [3], 16.3 nM.
In turn, `CC(=O)N[C@@H]1CCN(C(=O)C[C@H]2CC[C@H](c3ccc(N4CCOc5ncnc(N)c5C4=O)cc3)CC2)C1` [Example 6S] returned a half-maximal inhibitory concentration (IC50) under setting [4] of 192 nM.
In the case of `CCC1(CO)CCN(C(=O)C[C@H]2CC[C@H](c3ccc(N4CCOc5ncnc(N)c5C4=O)cc3)CC2)C1` (some centres unmarked) [Example 6R], the IC50 under setting [4] came out at 17.5 nM.
Same read-out and setting: the same measure for `CC(F)(F)CN(CCO)C(=O)C[C@H]1CC[C@H](c2ccc(N3CCOc4ncnc(N)c4C3=O)cc2)CC1` [Example 6AD]: 42.1 nM.
In turn, `COC(=O)C(C)(C)c1ccc(N2C[C@@H](C)Oc3ncnc(N)c3C2=O)cc1` [Example 1X] yielded an IC50 under setting [3] of 32.5 nM.
In turn, `Nc1ncnc2c1C(=O)N(c1ccc(C3CCN(C(=O)C4CCCOC4)CC3)cc1)CCO2` (centres unmarked) [Example 7Z] came in with a half-maximal inhibitory concentration (IC50) under setting [1] of 105 nM and an IC50 under setting [2] of 134 nM.
`C[C@@H]1CN(c2ccc([C@@H](O)C(C)(C)C)cc2)C(=O)c2c(N)ncnc2O1` [Example 1AC] had an IC50 under setting [3] of 55.4 nM.
For the molecule `C[C@@H]1CN(c2ccc(CC(C)(C)O)cc2)C(=O)c2c(N)ncnc2O1` [Example 1AN], the IC50 under setting [3] amounted to 104 nM.
Consider `CN(CC1CCOCC1)C(=O)C[C@H]1CC[C@H](c2ccc(N3CCOc4ncnc(N)c4C3=O)cc2)CC1` [Example 6D], for which the 50% inhibitory concentration (IC50) under setting [4] was 103 nM.
Consider `CCc1ccc(N2C[C@@H](C)Oc3ncnc(N)c3C2=O)cc1` [Example 1M, (8R)-4-amino-6-(4-ethylphenyl)-8-methyl-7,8-dihydropyrimido[5,4-f]-[1,4]oxazepin-5(6H)-one], for which the concentration for half-maximal inhibition (IC50) under setting [3] was determined as 13.7 nM.
Still for that read-out and setting: the same measure for `Cc1noc(C[C@H]2CC[C@H](c3ccc(N4C[C@@H](C)Oc5ncnc(N)c5C4=O)cc3)CC2)n1` [Example 2C]: 8.1 nM.
For the molecule `CC(C)(C#N)c1ccc(N2CCOc3ncnc(N)c3C2=O)cc1` [Example 1F, 2-[4-(4-amino-5-oxo-7,8-dihydropyrimido[5,4-f][1,4]oxazepin-6(5H)-yl)phenyl]-2-methylpropanenitrile], the 50% inhibitory concentration (IC50) by setting is: under setting [4], 2120 nM; under setting [1], 1290 nM; under setting [2], 2660 nM.
Turning to `CCCN(CCO)C(=O)C[C@H]1CC[C@H](c2ccc(N3CCOc4ncnc(N)c4C3=O)cc2)CC1` [Example 6AJ], half-maximal inhibition under setting [4] (IC50) was put at 65.5 nM.
With `Nc1ncnc2c1C(=O)N(c1ccc(C3CCN(C(=O)Cn4cccn4)CC3)cc1)CCO2` [Example 7AC], inhibition under setting [1] was half-maximal at 73.1 nM (IC50) and the concentration for half-maximal inhibition (IC50) under setting [2] came out at 113 nM.
For the molecule `C[C@@H]1CN(c2ccc(C3(O)CCCCC3)cc2)C(=O)c2c(N)ncnc2O1` [Example 1AJ], under setting [3], the concentration for half-maximal inhibition (IC50) is 35.6 nM.
Same read-out and setting: as for `C[C@@H]1CN(c2ccc(C(C)(C)C(=O)O)cc2)C(=O)c2c(N)ncnc2O1` [Example 1AO, 2-{4-[(8R)-4-amino-8-methyl-5-oxo-7,8-dihydropyrimido[5,4-f][1,4]oxazepin-6(5H)-yl]phenyl}-2-methylpropanoic acid], the figure is 20 nM.
`CN(C(=O)C[C@H]1CC[C@H](c2ccc(N3CCOc4ncnc(N)c4C3=O)cc2)CC1)C1CCOCC1` [Example 6H]: 53.5 nM corresponded to half-maximal inhibition under setting [4] (IC50).
The same measure, in the same setting: the same measure for `CC1C(=O)NCCN1C(=O)C[C@H]1CC[C@H](c2ccc(N3CCOc4ncnc(N)c4C3=O)cc2)CC1` (some centres unmarked) [Example 6BB]: 147 nM.
Under setting [3], `C[C@@H]1CN(c2ccc([C@H]3C[C@@H](O)C3)cc2)C(=O)c2c(N)ncnc2O1` [Example 1Q] registered a 50% inhibitory concentration (IC50) of 76.5 nM.
Under setting [4], `CN(C(=O)C[C@H]1CC[C@H](c2ccc(N3CCOc4ncnc(N)c4C3=O)cc2)CC1)[C@H]1CCCC[C@@H]1O` [Example 6AG] showed a half-maximal inhibitory concentration (IC50) of 52.8 nM.
Molecule `CCN(C(=O)C[C@H]1CC[C@H](c2ccc(N3CCOc4ncnc(N)c4C3=O)cc2)CC1)[C@H](C)CO` [Example 6Z] had a concentration for half-maximal inhibition (IC50) under setting [4] of 89.6 nM.
On to `CN(C)C(=O)CCN(C)C(=O)C[C@H]1CC[C@H](c2ccc(N3CCOc4ncnc(N)c4C3=O)cc2)CC1` [Example 6AC], for which 178 nM corresponded to half-maximal inhibition under setting [4] (IC50).
For the molecule `Cc1cc(C(=O)N2CCC(c3ccc(N4CCOc5ncnc(N)c5C4=O)cc3)CC2)no1` [Example 7V], the half-maximal inhibitory concentration (IC50) is, setting by setting: under setting [1], 113 nM; under setting [2], 224 nM.
The molecule `Nc1ncnc2c1C(=O)N(c1ccc([C@H]3CC[C@H](CCO)CC3)cc1)CCO2` [Example 1E, 4-amino-6-{4-[trans-4-(2-hydroxyethyl)cyclohexyl]phenyl}-7,8-dihydropyrimido[5,4-f][1,4]oxazepin-5(6H)-one] came in with an IC50 under setting [1] of 14.1 nM and an IC50 under setting [2] of 9.75 nM.
In turn, `COC(=O)c1ccc(N2C[C@@H](C)Oc3ncnc(N)c3C2=O)cc1` [Example 1J, Methyl 4-[(8R)-4-amino-8-methyl-5-oxo-7,8-dihydropyrimido[5,4-f][1,4]oxazepin-6(5H)-yl]benzoate] registered an IC50 under setting [3] of 161 nM.
`Nc1ncnc2c1C(=O)N(c1ccc([C@H]3CC[C@H](CC(=O)N4CCNC(=O)CC4)CC3)cc1)CCO2` [Example 6AL] yielded a concentration for half-maximal inhibition (IC50) under setting [4] of 105 nM.
Still for that read-out and setting: as for `CCCCCN(CCO)C(=O)C[C@H]1CC[C@H](c2ccc(N3CCOc4ncnc(N)c4C3=O)cc2)CC1` [Example 6V], the figure is 30.7 nM.
On the same count and under the same terms, the same measure for `CN(CCc1ccccn1)C(=O)C[C@H]1CC[C@H](c2ccc(N3CCOc4ncnc(N)c4C3=O)cc2)CC1` [Example 6W]: 77.7 nM.
Under setting [4], `Nc1ncnc2c1C(=O)N(c1ccc([C@H]3CC[C@H](CC(=O)N4CCCC(CO)C4)CC3)cc1)CCO2` (some centres unmarked) [Example 6M] had an IC50 of 45.7 nM.
In turn, `C[C@@H]1CN(c2ccc(C3(C(N)=O)CCC3)cc2)C(=O)c2c(N)ncnc2O1` [Example 1AH, 1-{4-[(8R)-4-amino-8-methyl-5-oxo-7,8-dihydropyrimido[5,4-f][1,4]oxazepin-6(5H)-yl]phenyl}cyclobutanecarboxamide] came in with an IC50 under setting [3] of 78.2 nM.
As to `C[C@@H]1CN(c2ccc(C(C)(C)C(F)(F)F)cc2)C(=O)c2c(N)ncnc2O1` [Example 1Z, (8R)-4-amino-8-methyl-6-[4-(2,2,2-trifluoro-1,1-dimethylethyl)phenyl]-7,8-dihydropyrimido[5,4-f][1,4]oxazepin-5(6H)-one], half-maximal inhibition under setting [3] (IC50) was put at 14.3 nM.
With `Nc1ncnc2c1C(=O)N(c1ccc(C3CCN(C(=O)C4CCCO4)CC3)cc1)CCO2` (centres unmarked) [Example 7X], the half-inhibitory concentration (IC50) came out at 88.4 nM under setting [1] and 157 nM under setting [2].
As to `Nc1ncnc2c1C(=O)N(c1ccc([C@H]3CC[C@H](CC(=O)N4CC(F)C4)CC3)cc1)CCO2` [Example 6AM], under setting [4], the midpoint of inhibition, the IC50, lay at 139 nM.

What is called IC50 is the point on the concentration scale where inhibition reaches its midpoint. A lower IC50 goes with higher potency.
